Experimental data published in patent publication US11702404B2, “GLP-1R modulating compounds” (priority 2019, dated 2023).
Where two headings read alike, the source gives them in different places.

Tests used:
[1] = Microsomal stability, human liver microsomes (predicted hepatic clearance); conditions: predicted from in vitro microsomal stability data
GLP-1R = GLP-1R (Homo sapiens, UniProt P43220); assay: GLP-1R activation: cAMP increase in CHO cells stably expressing GLP-1R; assay type: cell-based
[2] = cAMP increase, CHO cells stably expressing GLP-1R, 10 point dose response, 30 minutes incubation, read-out: EC50

Chain of GLP-1R (P43220 24-463): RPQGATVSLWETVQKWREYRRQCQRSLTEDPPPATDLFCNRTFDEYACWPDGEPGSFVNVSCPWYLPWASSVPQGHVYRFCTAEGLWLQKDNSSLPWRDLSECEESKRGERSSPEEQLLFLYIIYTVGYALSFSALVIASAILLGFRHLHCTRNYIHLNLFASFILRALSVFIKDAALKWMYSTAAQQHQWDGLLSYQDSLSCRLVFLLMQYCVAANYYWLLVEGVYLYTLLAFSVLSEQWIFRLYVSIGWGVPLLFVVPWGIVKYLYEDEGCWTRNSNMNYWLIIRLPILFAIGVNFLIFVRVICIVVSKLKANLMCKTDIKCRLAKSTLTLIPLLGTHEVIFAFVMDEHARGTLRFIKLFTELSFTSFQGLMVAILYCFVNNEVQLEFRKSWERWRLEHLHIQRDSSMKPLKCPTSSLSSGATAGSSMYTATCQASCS

SMILES | Predicted Hepatic Clearance (Pred. Cl.) [1] | EC50 (GLP-1R; [2]) | EC50 (GLP-1R; read-out: EC50) | EC50 (GLP-1R; EC50 (nM))
COCCn1c(Cc2ccc(-c3cccc(OCc4ccccc4NS(C)(=O)=O)n3)cc2F)nc2ccc(C(=O)O)cc21 [Example 516, 2-(2-fluoro-4-(6-((2-(methylsulfonamido)benzyl)oxy)pyridin-2-yl)benzyl)-1-(2-methoxyethyl)-1H-benzo[d]imidazole-6-carboxylic acid] | <1.83 mL/min/kg | 2460 nM |  | 
N#Cc1ccc(COc2cccc(-c3ccc(Cc4nc5c(F)cc(C(=O)O)cc5n4CC4(C#N)CC4)c(F)c3)n2)c(F)c1 [Example 315, 2-(4-(6-((4-cyano-2-fluorobenzyl)oxy)pyridin-2-yl)-2-fluorobenzyl)-1-((l-cyanocyclopropyl)methyl)-4-fluoro-1H-benzo[d]imidazole-6-carboxylic acid] | 5.67 mL/min/kg | 2.08 nM |  | 
N#Cc1ccc(COc2cccc(-c3ccc(Cc4nc5ccc(C(=O)O)cc5n4C[C@@H]4CCOC4)c(F)c3)n2)c(F)c1 [Example 197, (S)-2-(4-(6-((4-cyano-2-fluorobenzyl)oxy)pyridin-2-yl)-2-fluorobenzyl)-1-((tetrahydrofuran-3-yl)methyl)-1H-benzo[d]imidazole-carboxylic acid] | 6 mL/min/kg | 7.77 nM |  | 
COCCn1c(Cc2ccc(-c3cccc(OCc4ccc(C#N)cc4F)n3)cc2S(C)(=O)=O)nc2ccc(C(=O)O)cc21 [Example 387, 2-(4-(6-((4-cyano-2-fluorobenzyl)oxy)pyridin-2-yl)-2-(methylsulfonyl)benzyl)-1-(2-methoxyethyl)-1H-benzo[d]imidazole-6-carboxylic acid] | 8.3 mL/min/kg | 504 nM |  | 
N#Cc1ccc(COc2nc(-c3ccc(Cc4nc5ccc(C(=O)O)cc5n4C[C@@H]4CCO4)cc3F)ccc2F)c(F)c1 [Example 125, (S)-2-(4-(6-((4-cyano-2-fluorobenzyl)oxy)-5-fluoropyridin-2-yl)-3-fluorobenzyl)-1-(oxetan-2-ylmethyl)-1H-benzo[d]imidazole-6-carboxylic acid] | 2.58 mL/min/kg | 0.34 nM |  | 
COCCn1c(Cc2cc(F)c(-c3cccc(OCc4ccc(C#N)cc4F)n3)cc2CO)nc2ccc(C(=O)O)cc21 [Example 753] | 10.3 mL/min/kg | 0.74 nM |  | 
CC(C)(C)OC(=O)N(CCn1c(Cc2cc(F)c(-c3cccc(OCc4ccc(C#N)cc4F)n3)cc2F)nc2ccc(C(=O)O)cc21)C1CC1 [Example 907, 1-(2-((tert-butoxycarbonyl)(cyclopropyl)amino)ethyl)-2-(4-(6-((4-cyano-2-fluorobenzyl)oxy)pyridin-2-yl)-2,5-difluorobenzyl)-1H-benzo[d]imidazole-6-carboxylic acid] | 8.5 mL/min/kg |  | 9960 nM | 
CC(=O)N1CC(F)(F)C[C@@H]1Cn1c(Cc2cc(F)c(-c3cccc(OCc4ccc(C#N)cc4F)n3)cc2F)nc2ccc(C(=O)O)cc21 [Example 539, (R)-1-((1-acetyl-4,4-difluoropyrrolidin-2-yl)methyl)-2-(4-(6-((4-cyano-2-fluorobenzyl)oxy)pyridin-2-yl)-2,5-difluorobenzyl)-1H-benzo[d]imidazole-6-carboxylic acid] | 6.33 mL/min/kg |  | 0.7 nM | 
COCCn1c(C2(c3ccc(-c4cccc(OCc5ccc(C#N)cc5F)n4)cc3)CC2)nc2ccc(C(=O)O)cc21 [Example 32, 2-(1-(4-(6-((4-cyano-2-fluorobenzyl)oxy)pyridin-2-yl)phenyl)cyclopropyl)-1-(2-methoxyethyl)-1H-benzo[d]imidazole-6-carboxylic acid] | 7.83 mL/min/kg | > 1000 nM |  | 
N#Cc1ccc(COc2cccc(-c3ccc(Cc4nc5cc(F)c(C(=O)O)cc5n4CC4(CF)CC4)c(F)c3)n2)c(F)c1 [Example 221, 2-(4-(6-((4-cyano-2-fluorobenzyl)oxy)pyridin-2-yl)-2-fluorobenzyl)-5-fluoro-1-((1-(fluoromethyl)cyclopropyl)methyl)-1H-benzo[d]imidazole-6-carboxylic acid] | 3.5 mL/min/kg | 5.28 nM |  | 
N#Cc1ccc(COc2cccc(-c3cc(F)c(Cc4nc5ccc(C(=O)O)cc5n4Cc4ccon4)cc3F)n2)c(F)c1 [Example 486, 2-(4-(6-((4-cyano-2-fluorobenzyl)oxy)pyridin-2-yl)-2,5-difluorobenzyl)-1-(isoxazol-3-ylmethyl)-1H-benzo[d]imidazole-6-carboxylic acid] | 5 mL/min/kg | 1.05 nM |  | 
CS(=O)(=O)N1CCC[C@@H]1Cn1c(Cc2cc(F)c(-c3cccc(OCc4ccc(C#N)cc4F)n3)cc2F)nc2ccc(C(=O)O)cc21 [Example 735] | 7.17 mL/min/kg |  | 1.7 nM | 
COCCn1c(Cc2ccc(-c3cccc(OCc4ccc(C#N)cc4F)n3)cc2NC(=O)OC)nc2ccc(C(=O)O)cc21 [Example 383, 2-(4-(6-((4-cyano-2-fluorobenzyl)oxy)pyridin-2-yl)-2-((methoxycarbonyl)amino)benzyl)-1-(2-methoxyethyl)-1H-benzo[d]imidazole-6-carboxylic acid] | 8.67 mL/min/kg |  |  | 123 nM
COC(Cn1c(Cc2cc(F)c(-c3cccc(OCc4ccc(C#N)cc4F)n3)cc2F)nc2ccc(C(=O)O)cc21)C(F)(F)F (centres unmarked) [Example 715] | 2 mL/min/kg | 4.01 nM |  | 
COCCn1c(Cc2ccc(-c3cccc(OCc4cccc(C#N)c4)n3)cc2F)nc2ccc(C(=O)O)cc21 [Example 497, 2-(4-(6-((3-cyanobenzyl)oxy)pyridin-2-yl)-2-fluorobenzyl)-1-(2-methoxyethyl)-1H-benzo[d]imidazole-6-carboxylic acid] | 5.33 mL/min/kg | 1350 nM |  | 
COCCn1c(C2CCOc3cc(-c4cccc(OCc5ccc(C#N)cc5F)n4)ccc32)nc2ccc(C(=O)O)cc21 (centres unmarked) [Example 41, 2-(7-(6-((4-cyano-2-fluorobenzyl)oxy)pyridin-2-yl)chroman-4-yl)-1-(2-methoxyethyl)-1H-benzo[d]imidazole-carboxylic acid] | 6 mL/min/kg | 1460 nM |  | 
C[C@@]1(Cn2c(Cc3ccc(-c4cccc(OCc5ccc(C#N)cc5F)n4)cc3F)nc3ccc(C(=O)O)cc32)CCO1 [Example 105, (S)-2-(4-(6-((4-cyano-2-fluorobenzyl)oxy)pyridin-2-yl)-2-fluorobenzyl)-1-((2-methyloxetan-2-yl)methyl)-1H-benzo[d]imidazole-6-carboxylic acid] | 6.33 mL/min/kg | 0.45 nM |  | 
COCCn1c(Cc2ccc(-c3cccc(OCc4ccc(C#N)cc4F)n3)cc2F)nc2ccc(C(=O)O)nc21 [Example 200, 2-(4-(6-((4-cyano-2-fluorobenzyl)oxy)pyridin-2-yl)-2-fluorobenzyl)-3-(2-methoxyethyl)-3H-imidazo[4,5-b]pyridine-5-carboxylic acid] | 2.83 mL/min/kg | 18 nM |  | 
N#Cc1ccc(COc2cccc(-c3ccc(Cc4nc5ccc(C(=O)O)cc5n4CC4(C(F)F)CCC4)c(F)c3)n2)c(F)c1 [Example 385, 2-(4-(6-((4-cyano-2-fluorobenzyl)oxy)pyridin-2-yl)-2-fluorobenzyl)-1-((1-(difluoromethyl)cyclobutyl)methyl)-1H-benzo[d]imidazole-6-carboxylic acid] | 5.33 mL/min/kg | 1.34 nM |  | 
